Each compound was assayed against T1, human CXCR3 (N-delta 4) (Homo sapiens, UniProt P49682) (assay: Human CXCR3 (N-delta 4) Scintillation Proximity Assay (SPA), [125I] IP-10 binding). Settings: IC50 rating; Ba/F3-hCXCR3 (N-delta 4) membranes, 25 pM [125I] IP-10; read-out: IC50.
T1 construct: CD8 leader (N); Flag tag (N); expressed in transfected cells; host or cells: mouse pro-B Ba/F3 cells, stably transfected with pME18Sneo-hCXCR3 (N-delta 4); membrane preparation
T1 sequence (P49682 5-368 limits assumed): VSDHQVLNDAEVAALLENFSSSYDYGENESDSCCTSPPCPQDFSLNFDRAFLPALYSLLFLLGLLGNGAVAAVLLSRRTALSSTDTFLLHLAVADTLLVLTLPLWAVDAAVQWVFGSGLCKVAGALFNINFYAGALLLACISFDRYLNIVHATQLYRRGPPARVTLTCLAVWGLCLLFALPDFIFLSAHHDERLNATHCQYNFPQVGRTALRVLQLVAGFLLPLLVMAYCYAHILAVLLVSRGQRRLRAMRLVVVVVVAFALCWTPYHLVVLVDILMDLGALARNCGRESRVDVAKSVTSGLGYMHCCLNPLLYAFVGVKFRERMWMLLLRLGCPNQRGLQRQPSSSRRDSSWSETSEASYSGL
Procedure, shortened: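 Membranes from mouse Ba/F3 pro-B cells stably expressing Flag-tagged human CXCR3 (N-delta 4), 2 μg per point, bound to WGA SPA beads. Compound titrations competed with 25 pM [125I] IP-10 for 3 hr at room temperature in HEPES buffer with Ca2+, Mg2+, NaCl, 1.0% BSA; bead-bound radioactivity counted, […] values reported.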

SMILES	IC50 [nM]
CC[C@H]1CN(c2ncc(-c3nnc(NC4(C)CC4)o3)nc2C)[C@H](C)CN1C1CCN(C(=O)c2ccc(Cl)nc2N)CC1 [Compound 186]	< 25
CCNc1nnc(-c2cnc(N3CCN(C4CCN(C(=O)c5cc(F)c(Cl)cc5F)CC4)[C@@H](CC)C3)c(Cl)n2)o1 [Compound 187]	< 25
CCNc1nnc(-c2cnc(N3C[C@H](CC)N(C4CCN(C(C(=O)OC)c5ccc(F)c(F)c5)CC4)C[C@H]3C)c(C)n2)o1 (some centres unmarked) [Compound 188]	< 25
CCNc1nnc(-c2cnc(N3C[C@H](CC)N(C4CCN(C(=O)c5ccc(C(F)(F)F)nc5N)CC4)C[C@H]3C)c(C)n2)o1 [Compound 189]	< 25
CC[C@H]1CN(c2nc(N)c(-c3nnc(NC)o3)nc2Cl)CCN1C1CCN(C(C(=O)OC)c2ccc(Cl)cc2)CC1 (some centres unmarked) [Compound 190]	< 25
CCNc1nnc(-c2cnc(N3C[C@H](CC)N(C4CCN(C(=O)c5ccc(Cl)cc5)CC4)C[C@H]3C)c(C(F)(F)F)n2)o1 [Compound 191]	< 25
CCOC(=O)CNc1nnc(-c2nc(C)c(N3CCN(C4CCN(C(=O)c5ccc(Cl)nc5N)CC4)[C@@H](CC)C3)nc2N)o1 [Compound 192]	< 25
CC[C@H]1CN(c2nc(N)c(-c3nnc(NCC(=O)NC)o3)nc2C)CCN1C1CCN(C(=O)c2ccc(Cl)nc2N)CC1 [Compound 193]	< 25
CC[C@H]1CN(c2nc(N)c(-c3nnc(NCC(=O)NC4CC4)o3)nc2C)CCN1C1CCN(C(=O)c2ccc(Cl)nc2N)CC1 [Compound 194]	< 25
CCOC(=O)CNc1nnc(-c2cnc(N3CCN(C4CCN(Cc5ccc(F)c(F)c5COCc5ccccc5)CC4)[C@@H](CC)C3)c(C)n2)o1 [Compound 195]	25 to 100
CC[C@H]1CN(c2ncc(-c3nnc(N(CC)S(=O)(=O)c4ccc(C)cc4)o3)nc2C)C(C)CN1C1CCN(C(=O)c2ccc(Cl)cc2)CC1 (some centres unmarked) [Compound 196]	25 to 100
